Test results taken from PubChem BioAssay (NCI).
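Test compounds were applied to cells in 96-well plates for 48 hours at 5 doses. GI50: concentration for 50% inhibition of growth. TGI: total growth inhibition.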

What was measured:
Experiment in all cases: inhibition of tumour cell growth, NCI panel, 48 h
[1] = tested on: 786-0 renal
[2] = tested on: CAKI-1 renal
[3] = tested on: COLO 205 colon
[4] = tested on: LOX IMVI melanoma
[5] = tested on: MOLT-4 leukemia
[6] = tested on: SF-268 CNS
[7] = tested on: SN12C renal
[8] = tested on: SR leukemia
[9] = tested on: SW-620 colon
[10] = tested on: U251 CNS

| Compound | GI50 [1] [µM] | TGI [1] [µM] | GI50 [2] [µM] | TGI [2] [µM] | GI50 [3] [µM] | TGI [3] [µM] | GI50 [4] [µM] | TGI [4] [µM] | GI50 [5] [µM] | TGI [5] [µM] | GI50 [6] [µM] | TGI [6] [µM] | GI50 [7] [µM] | TGI [7] [µM] | GI50 [8] [µM] | TGI [8] [µM] | GI50 [9] [µM] | TGI [9] [µM] | GI50 [10] [µM] | TGI [10] [µM] |
| --- | --- | --- | --- | --- | --- | --- | --- | --- | --- | --- | --- | --- | --- | --- | --- | --- | --- | --- | --- | --- |
| OC(COc1cccc2ccccc12)CN1CCN(c2ccccc2)CC1 (stereo not given) | 17.4 | 32.2 | 12.6 | 27.2 | 16.4 | 30.9 | 15.8 | 31.1 | 16.3 | 56.3 | 16.4 | 31.3 | 16.4 | 31 | 16.1 | 41.3 | 15.2 | 30.1 | 17.3 | 32.1 |
| CN(C)CCCNc1nccc(-c2c(-c3ccc(F)cc3)nn3cc(C(F)(F)F)ccc23)n1 | 7.69 | > 25 | 12.3 | > 25 | 4.23 | 8.71 | 5.06 | 15.2 | 6.37 | 17.3 | 9.79 | > 25 | 15.3 | > 25 | 5.15 | 12.6 | 7.33 | > 25 | 10.7 | > 25 |
| CC1=C(c2cc(C(=O)Nc3ccc(Cl)c(Cl)c3)nc(N)n2)Sc2ccccc2N1 | – | > 100 | – | > 100 | – | > 100 | – | > 100 | – | > 100 | – | > 100 | – | > 100 | – | > 100 | – | > 100 | – | > 100 |
| CC[CH2][Sn]([Cl])([Cl])[CH2]CC | 10.8 | 23 | 6.69 | 21 | 8.53 | 22.5 | 2.8 | 11.4 | 5.35 | > 100 | 9.63 | 22.5 | 7.08 | 20.2 | 3.38 | 80.7 | 2.61 | 11.5 | 3.9 | 16.5 |
| CCCN(CCC)CCCNC(=O)c1cc2c(-c3ccc(OC)c(OC)c3)nn(C)c2s1 | 17.9 | 91 | 27.1 | > 100 | 13.6 | 30.3 | 15.1 | 31 | 17.6 | 59.5 | 31.1 | > 100 | 54.9 | > 100 | 11.9 | 58.9 | 24.5 | 82.6 | 25.3 | > 100 |
| COC(=O)Nc1nc2cc3c(cc2s1)OCCO3 | > 50 | > 50 | > 50 | > 50 | > 50 | > 50 | > 50 | > 50 | > 50 | > 50 | > 50 | > 50 | > 50 | > 50 | > 50 | > 50 | > 50 | > 50 | > 50 | > 50 |
